In patent publication US4430335A (priority 1983, dated 1984):

System: mice
Parameters: species or system mice (male, CD-1)
Conditions: mouse, in vivo

Structure (SMILES): CCC(=O)O[C@](Cc1ccccc1)(c1ccccc1)[C@H](C)CN(C)C [propoxyphine]
- Dose Subcutaneously (sc) [*= ED50 ], 50 % Inhibition of phenylquinone writhing: 3.4
